Measured values from US9296716B2, “Androgen receptor ligands” (THE PROVOST, FELLOWS, FOUNDATION SCHOLARS, & THE OTHER …, priority 2011, dated 2016).
“Also recorded” adds a separate entry of the source.

Key:
Assay type in all cases: cell-based
PC-3 cells = assay: Cell viability (AlamarBlue), PC-3; settings: 50 μM, 24 hours
Experimental: Cell viability was assessed after 24 hours of incubation with the test compounds initially at three different concentrations to establish their dose-responsiveness, considering 50 μM as the highest concentration (FIG. 10).
For cell viability (end point) assays LNCaP, PC-3 and PWR-1E cells were seeded at 2.5*10^4/ml density in 200 μl volume of a 96-well plate in triplicate and incubated for 24 hours prior testing. Test compounds were included at different concentrations to achieve a final concentration of 0.5% DMSO in each well. Effect of 0.5% DMSO on cell-viability was also evaluated. Cell viability was assessed after 24 hours of treatment using 10% Alamar Blue reagent (Invitrogen) for each well. Cell viability was monitored by the reduction of resazurin, a blue, cell-permeable and non-toxic compound, to resorufin, a red and highly fluorescent product. Viable cells continuously convert resazurin to resorufin, increasing the overall colour and fluorescence of the media surrounding cells. Fluorescence intensity can be quantitatively determined with a fluorescence microplate reader at excitation/emission 544 nm/590 nm (Spectramax Gemini). For hormone dependent cell proliferation assays in androgen deprived LNCaP cells, cells were seeded at 2*10^4 cells/ml in a 24-well plate in triplicate. […] A control for the vehicle was included to ensure no effect on viability could be detected. […]

[1] = tested on: PSA expression in LNCaP cells; assay: PSA ELISA, secreted PSA in LNCaP cells; settings: bell-shaped effect
Experimental: (§1) To investigate compounds effect on PSA expression, a common biomarker for prostate cancer, we utilized a human PSA ELISA assay.
(§2) For cell viability (end point) assays LNCaP, PC-3 and PWR-1E cells were seeded at 2.5*10^4/ml density in 200 μl volume of a 96-well plate in triplicate and incubated for 24 hours prior testing. Test compounds were included at different concentrations to achieve a final concentration of 0.5% DMSO in each well. Effect of 0.5% DMSO on cell-viability was also evaluated. Cell viability was assessed after 24 hours of treatment using 10% Alamar Blue reagent (Invitrogen) for each well. Cell viability was monitored by the reduction of resazurin, a blue, cell-permeable and non-toxic compound, to resorufin, a red and highly fluorescent product. Viable cells continuously convert resazurin to resorufin, increasing the overall colour and fluorescence of the media surrounding cells. Fluorescence intensity can be quantitatively determined with a fluorescence microplate reader at excitation/emission 544 nm/590 nm (Spectramax Gemini). For hormone dependent cell proliferation assays in androgen deprived LNCaP cells, cells were seeded at 2*10^4 cells/ml in a 24-well plate in triplicate. Cells were plated in phenol red free RPMI Glutamax (Invitrogen) supplemented with 10% charcoal-stripped FBS to deplete endogenous steroids 48 hours prior the assay as described in previous reports. […] Cells were treated with different concentrations of test compounds with or without 0.1 nM DHT to achieve a final concentration of 0.1% DMSO in each well. A control for the vehicle was included to ensure no effect on viability could be detected. Media and treatments were replaced every second day, after washing the cells twice with 1×PBS. Supernatants were collected after five days for secreted PSA levels evaluation and cell proliferation was assessed for the same plate using Alamar Blue in order to exclude non-specific effects due to toxicity issues.
Secreted levels of prostate specific antigen were evaluated with a commercially available kit (Quantikine Human Kallikrein 3/PSA Immunoassay, R&D systems). The assay was performed following manufacturer's guidelines. In brief, 50 μl of standards and cell culture samples were added to pre-coated wells containing assay diluent RD1W (R&D systems) and incubated for two hours at room temperature. […] Wells were washed and treated with colored substrate (Tetramethylbenzidine) for an additional 30 minutes, after which 50 μl of stop solution (Sulphuric Acid 2N) was added per well and absorbance (450 nm with correction at 540 nm) was read with a plate reader within 30 minutes (Versamax).

[2] = tested on: PSA expression in 22Rv1 cells; assay: PSA ELISA, secreted PSA in 22Rv1 cells; settings: 22Rv1
Experimental: as §1
(§3) We repeated the same experiment in 22Rv1 cell line.
Secreted levels of prostate specific antigen were evaluated with a commercially available kit (Quantikine Human Kallikrein 3/PSA Immunoassay, R&D systems). The assay was performed following manufacturer's guidelines. In brief, 50 μl of standards and cell culture samples were added to pre-coated wells containing assay diluent RD1W (R&D systems) and incubated for two hours at room temperature. Unbound material was washed several times and 200 μl of Horseradish Peroxidase (HRP) labeled PSA conjugate antibody was added to each well and further incubated for two hours at room temperature. Wells were washed and treated with colored substrate (Tetramethylbenzidine) for an additional 30 minutes, after which 50 μl of stop solution (Sulphuric Acid 2N) was added per well and absorbance (450 nm with correction at 540 nm) was read with a plate reader within 30 minutes (Versamax).

LNCaP cells = assay: LNCaP cell proliferation assay (androgen deprived, AlamarBlue); settings: LNCaP, androgen deprived media, no DHT
Experimental: To determine the optimal DHT concentration and length of treatment required for cell proliferation assays, we tested a range of DHT concentrations in 0.1% DMSO for 5 or 7 days in LNCaP cells cultured in FBS stripped phenol red free media. […] Media and treatments were replaced every second incubation day (FIGS. 12 A and B)
as §2

22Rv1 cells = assay: 22Rv1 cell proliferation assay
Experimental: Thus, inhibition on cell proliferation by the compounds could not be evaluated (FIG. 14)
as §3
For cell viability (end point) assays LNCaP, PC-3 and PWR-1E cells were seeded at 2.5*10^4/ml density in 200 μl volume of a 96-well plate in triplicate and incubated for 24 hours prior testing. Test compounds were included at different concentrations to achieve a final concentration of 0.5% DMSO in each well. Effect of 0.5% DMSO on cell-viability was also evaluated. Cell viability was assessed after 24 hours of treatment using 10% Alamar Blue reagent (Invitrogen) for each well. Cell viability was monitored by the reduction of resazurin, a blue, cell-permeable and non-toxic compound, to resorufin, a red and highly fluorescent product. Viable cells continuously convert resazurin to resorufin, increasing the overall colour and fluorescence of the media surrounding cells. Fluorescence intensity can be quantitatively determined with a fluorescence microplate reader at excitation/emission 544 nm/590 nm (Spectramax Gemini). […] A control for the vehicle was included to ensure no effect on viability could be detected. […] Supernatants were collected after five days for secreted PSA levels evaluation and cell proliferation was assessed for the same plate using Alamar Blue in order to exclude non-specific effects due to toxicity issues.

CC(=O)O[C@]1(C(C)=O)CC[C@H]2[C@@H]3C=C(Cl)C4=CC(=O)[C@@H]5C[C@@H]5[C@]4(C)[C@H]3CC[C@@]21C [CPA, Cyproterone Acetate, reference compound]
effect on cell viability (PC-3 cells): minor effect
maximal stimulatory concentration for PSA secretion [1]: 1 µM
PSA expression in absence of androgens [2]: remarkable increase
cell proliferation in absence of DHT / androgens (LNCaP cells): induces cell proliferation; also recorded: stimulates cell proliferation
cell proliferation in absence of androgens (22Rv1 cells): couldn't see a remarkable increase
